The term inhibition denotes the relative decrease from the control value, in per cent.

Where a name gives a salt, the structure may show the parent alone. Read-outs that look alike come from different tables or passages of the source.

Assay [1] has as its system late components of human complement (C3-C9). As to the kind of experiment: Test Code 035 (C3-C9 inhibitor), lysis of EAC 142. In kind it is biochemical. On the set-up: key: N = Negative. The settings on record: serial dilution assay, twofold dilutions.
Assay [2] relates to complement activity in serum. As to the kind of experiment: Guinea Pig Intraperitoneal Test (GPIP). The settings on record: Cavia porcellus, ip, 200 mg./kg. i.p. Format: in vivo.
For another assay, the target named is activated human C1 (Homo sapiens, UniProt P09871). Kind of assay: Test Code 026 (C1 inhibitor). Format: biochemical. As to conditions: serial dilution assay, twofold dilutions; higher well number indicates higher activity.
For a further assay, the system named is shunt pathway. Kind of assay: Test Code 036 (C-Shunt inhibitor), lysis of human erythrocytes via cobra venom factor activated shunt pathway. Format: biochemical. Set-up: key: N = Negative. The settings on record: serial dilution assay, twofold dilutions.

As to `O=S(=O)(O)c1cc(NS(=O)(=O)c2cc(S(=O)(=O)Nc3cc(S(=O)(=O)O)cc(S(=O)(=O)O)c3)cc(S(=O)(=O)Nc3cc(S(=O)(=O)O)cc(S(=O)(=O)O)c3)c2)cc(S(=O)(=O)O)c1` [5,5',5"-[s-Phenenyltris(sulfonylimino)]tri-m-benzenedisulfonic acid, hexasodium salt], the “C-Late 035 Wells” value in assay [1] is listed as “N”. In addition, the inhibition at 200 mg/kg in assay [2] (0.5 h, 30 min after injection, read-out: In Vivo Activity (Guinea pig) % Inhibition Intraperitoneal, 30 min) is -75%; in assay [2] (1 h, 60 min after injection, read-out: In Vivo Activity (Guinea pig) % Inhibition Intraperitoneal, 60 min) it was -75%; in assay [2] (2 h, 120 min after injection, read-out: In Vivo Activity (Guinea pig) % Inhibition Intraperitoneal, 120 min), -81%. Also, at activated human C1, the “Cl 026 Wells” value is given as “+8 Wells”. The “Shunt Inhibition 036 Wells” value in the assay on shunt pathway is listed as “N”.

For the origin of these results see patent publication US4318864A, “Process for making s-phenenyltris(sulfonylimino)tri-benzene mono- and di-sulfonic acids and salts” (American Cyanamid Company, priority 1980, dated 1982).
